Reference: patent publication US8653132B2, “Phosphaplatins and their use in pharmaceutical compositions” (Ohio University, priority 2007, dated 2014)

Experiments:
BAX = test: Apoptotic gene array, real-time PCR: BAX; assay type: cell-based; conditions: preliminary
Description: Preliminary gene expression experiments involving complexes of the present invention as compared to cisplatin (data not shown) were carried out with an apoptotic array containing 84 genes that includes the BCL2 superfamily, both pro- and anti-apoptotic, caspases, the BIR-family, TNF receptor […] factors, p53 and its congeners, and fas associated members by real-time PCR. A closer look at the two sets of gene expressions clearly indicates a number of differences in the expression patterns. […] Specifically, fas was over-expressed by 6-fold compared to the control, and TNFRS genes such as TNFRSF-10B was overexpressed by 2-3 folds over controls. These latter receptor factors belong to the fas superfamily.

A2780/C30 cells [1] = test: Cellular accumulation of platinum by atomic absorption, A2780/C30; assay type: cell-based, human; conditions: 1 hr exposure
Description: Platinum content was quantitatively estimated on a Graphite Furnace Atomic Absorption Spectrometer (Perkin Elmer AA-600) from calibration curves established by using cisplatin or pyrodach-2 in water. Cells (5×10^6) were seeded in T75 cm^2 flasks. After 24 h, these cells were then treated with the different concentrations (0, 10, 20, 30 and 50 μM) of cisplatin and pyrodach-2. After 1 hr exposure with the platinum complexes, the drug-containing medium was removed and the cells were washed with ice-cold phosphate-buffered saline (PBS). The cells were then trypsinized and centrifuged into a pellet. Cell pellets were digested in concentrated HNO3 and H2O2 prior to analysis, according to the method of McGahan. Data reported in Table 4 were collected from three independent experiments each was carried out in duplicate. For the cisplatin accumulation, data were obtained from triplicate runs from a single sample at a given concentration.

DNA of A2780 cells = test: DNA-bound platinum in cells by atomic absorption; assay type: cell-based, human; conditions: up to 50 micromolar, treated up to 24 hours
Description: For DNA-Pt measurements, 1.0×10^7 cells were seeded in T75 cm^2 flasks. After 24 hr, the platinum complexes were added at the different concentrations 0, 10, 20, 30 and 50 μM. Cells were treated with the platinum complexes for 24 hours. Following treatment, the medium was removed and cells were washed with ice-cold PBS. The cells were trypsinized and centrifuged into a pellet. DNA was extracted using a Wizard® SV DNA purification kit (Promega). The DNA was quantitatively estimated from the absorption at 260 nm using a NanoDrop UV-Vis instrument.

A2780/C30 cells [2] = test: Cellular accumulation of platinum by atomic absorption, A2780/C30; assay type: cell-based, human; conditions: at its IC50 value
[3] = system: synthetic 25-mer oligonucleotide (SEQ ID NO:1); test: Platinum-DNA binding by NMR, 25-mer oligonucleotide; conditions: 1H NMR, identical conditions for both complexes
Description: In the associated experiment, dach-2 was allowed to react with double-stranded calf-thymus DNA, a synthetic oligonucleotide (5′-[…]-3′; SEQ ID NO:1), a dinucleotide (dGpG), and nucleotide monophosphates (5′-dGMP and 5′-dAMP) at concentrations as much as 250-times higher than those of cellular doses. The extent of DNA binding was monitored by ^1H NMR spectroscopy. In parallel, similar reactions with cisplatin were conducted under identical conditions.
Proton NMR spectroscopic experiments were conducted on a Bruker 500 MHz NMR instrument in 99% (atom) D2O with a water suppression pulse sequence. Samples contained cisplatin (2.0 mM) or pyrodach-2 (2.0 mM) and nucleotides (5′-dGMP, 5′-dAMP, dGpG (5.0 mM)), and, single- and double stranded DNA (calf thymus, 5.0 mM) at pH 7.0 maintained by phosphate and carbonate buffers (10-20 mM). Reactions of cisplatin (0.25 mM) and pyrodach-2 (0.25 mM) with a synthetic 25-mer: 5′-[…]-3′ (SEQ ID NO: 1) (0.25 mM) were also performed under identical conditions. Reactions were carried out up to 7 days, and ^1H and ^31P NMR spectra were recorded at regular time intervals. Usually, a pulse width of 5 μs with a 1.0 s repetition delay was used for the measurements. Typically, a sweepwidth of 10,000 Hz and 32 K data points were selected to collect the Free Induction Decays. A line broadening factor of 1 Hz was for applied Fourier transformation. […]

[4] = Stability in aqueous solution by 31P NMR; assay type: physicochemical
Description: Starting with the bottom spectrum in each panel, spectra were recorded at 24 hour time intervals.
At neutral pH, the isolated monomeric Pt(II) and Pl(IV) complexes of the present invention are stable. […] However, in the same time interval, slow deligation due to the release of the pyrophosphate ligand was evident at pH 4.2 by the appearance of the free pyrophosphate signal at −10.3 ppm. At the same time, an insoluble pyrophosphate-bridged dinuclear platinum(II) product was formed.

CHO cell line = test: Cytotoxic assay, CHO; assay type: cell-based
Excerpt: In some embodiments, the complexes of the present invention are useful for treating various cancers. […] The complexes of the present invention are particularly desirable because they may have reduced toxicity in vivo.

[5] = system: A2780 human ovarian cancer cells; test: Clonogenic assay, A2780; assay type: cell-based; conditions: 1 hour drug treatment, 1 week colony formation, read-out: IC50 A780
Description: Human ovarian cancer cells, A2780, were obtained from Dr. Thomas Hamilton (Fox Chase Cancer Center, Philadelphia, Pa.). Cells were cultured on monolayer using RPMI 1640 supplemented with 10% fetal bovine serum, 2 mM glutamine, 0.25 units/mL insulin and penicillin/streptomycin in a 37 degrees C. incubator continuously gassed with 5% CO2. Cells were subcultured using 0.0625% trypsin in HBSS to maintain cells in exponential growth.
IC50 values were determined using a clonogenic assay. Briefly, 500 A2780 cells from a single cell suspension were plated onto 60mm Petri plates 24 hours before drug treatment to permit cell attachment. On the day of drug treatment, the medium was decanted and replaced with the drug and these treated cells were placed back into the 37 degrees C. incubator for 1 hour. Triplicate plates were set up for each drug concentration. After the 1 hour drug treatment, the drug containing medium was decanted and replaced with fresh medium. These plates were returned to the 37 degrees C. incubator for 1 week for colony formation. Colonies were fixed and stained using 2% crystal violet in absolute methanol. Colonies containing more than 50 cells were scored. The number of scored colonies from the triplicate plates was averaged and this number was divided by the number of cells plated to obtain a value for the fraction of cells forming colonies. These values for fraction of cells forming colonies were then corrected for plating efficiency by dividing it by the number of cells forming colonies in plates that were not treated with drug.

[6] = pKa from 31P chemical shift as a function of pH; assay type: physicochemical
[7] = calculated from phosphorus-31 chemical shifts

In the case of `NC1CCCCC1N.O=P([O-])(O)OP(=O)([O-])O.[Pt+2]` [dach-2, (Trans-1,2-cyclohexanediamine)(dihydrogenpyrophosphato)platinum(II)], the BAX overexpression (BAX) is reported as 2-3 folds, the “Cellular accumulation of platinum” value (A2780/C30 cells [1]; A2780/C30, 10 μM) is reported as 0.10 ± 0.08 ng/10^6 cells and the “Cellular accumulation of platinum” value (A2780/C30 cells [1]; A2780/C30, 20 μM) is reported as 1.00 ± 0.02 ng/10^6 cells. For the same compound, the “Cellular accumulation of platinum” value (A2780/C30 cells [1]; A2780/C30, 30 μM) was 1.00 ± 0.02 ng/10^6 cells, the “Cellular accumulation of platinum” value (A2780/C30 cells [1]; A2780/C30, 50 μM) was 2.00 ± 0.10 ng/10^6 cells and the DNA-bound platinum (DNA of A2780 cells) was “No DNA-bound platinum was detected”. The “platinum accumulation in the resistant cell lines” value (A2780/C30 cells [2]) was 1.4 ng Pt/10^6 cells, the “DNA binding, 25-mer oligonucleotide” value [3] was “does not exhibit any measurable DNA binding” and the “decomposition / deligation at pH 4.2” value ([4]; pH 4.2, six days) was “considerable decomposition”. For the same compound, the “decomposition at pH 8” value ([4]; pH 8, up to six days) was “no decomposition”, the IC50 (CHO cell line) was 35 ± 5 µM and the IC50 [5] was 20 ± 4 µM. For the same compound, the pKa1 [6, 7] was 2.6 ± 0.2, the pKa2 [6, 7] was 4.4 ± 0.2 and the “pKa1 (value in parentheses)” value ([6]; second value printed in parentheses under pKa1, not explained) was “(3.3 ± 0.1)”.
